According to patent US7071169B2, “Pyrane derivatives as both ACE-and NEP-inhibitors” (Novartis AG, priority 2001, dated 2006):
Bridges are numbered along the chain shown (N, C = ends). Where no end group is shown, it is not given here.

Columns and labels:
[1] = test system: angiotensin I induced pressor response; assay: inhibition of the angiotensin I induced pressor response in normotensive rats; assay type: in vivo, rat; conditions: 10 mg/kg p.o., for 4 hours
Procedure: The in vivo test for i.v. administered compounds is performed with male, normotensive rats, which are anesthetized with sodium metofan. A femoral artery and femoral vein are cannulated respectively for direct blood pressure measurement on i.v. administration of angiotensin I and i.v. or p.o. administration of a compound of this invention. After the basal blood pressure is stabilized, pressor responses to 3 challenges of 300 ng/kg angiotensin I i.v., at 15 minute intervals, are obtained. Such pressure responses are usually again obtained at 15, 30, 60 and 90 minutes, and then every hour up to 6 hours after i.v. or p.o. administration of the compound to be tested, and compared with the initial responses. Any observed decrease of said pressor response is an indication of ACE inhibition.

[2] = test system: spontaneously hypertensive rat (SHR); assay: antihypertensive activity in conscious spontaneously hypertensive rat (SHR); assay type: in vivo; conditions: 11.6 mg/kg p.o.
Source text: The antihypertensive activity can be determined, e.g., in the spontaneously hypertensive rat (SHR) and the desoxy-corticosterone acetate (DOCA)-salt hypertensive rat, e.g., according to Trapani et al., J. Cardiovasc. Pharmacol., Vol. 14, pp. 419–424 (1989).

ACE = ACE (Homo sapiens, UniProt P12821); assay: in vitro inhibition of ACE (hippuryl-histidyl-leucine hydrolysis); assay type: biochemical; conditions: ACE in vitro assay
ACE, sequence (P12821 30-1306, species assumed): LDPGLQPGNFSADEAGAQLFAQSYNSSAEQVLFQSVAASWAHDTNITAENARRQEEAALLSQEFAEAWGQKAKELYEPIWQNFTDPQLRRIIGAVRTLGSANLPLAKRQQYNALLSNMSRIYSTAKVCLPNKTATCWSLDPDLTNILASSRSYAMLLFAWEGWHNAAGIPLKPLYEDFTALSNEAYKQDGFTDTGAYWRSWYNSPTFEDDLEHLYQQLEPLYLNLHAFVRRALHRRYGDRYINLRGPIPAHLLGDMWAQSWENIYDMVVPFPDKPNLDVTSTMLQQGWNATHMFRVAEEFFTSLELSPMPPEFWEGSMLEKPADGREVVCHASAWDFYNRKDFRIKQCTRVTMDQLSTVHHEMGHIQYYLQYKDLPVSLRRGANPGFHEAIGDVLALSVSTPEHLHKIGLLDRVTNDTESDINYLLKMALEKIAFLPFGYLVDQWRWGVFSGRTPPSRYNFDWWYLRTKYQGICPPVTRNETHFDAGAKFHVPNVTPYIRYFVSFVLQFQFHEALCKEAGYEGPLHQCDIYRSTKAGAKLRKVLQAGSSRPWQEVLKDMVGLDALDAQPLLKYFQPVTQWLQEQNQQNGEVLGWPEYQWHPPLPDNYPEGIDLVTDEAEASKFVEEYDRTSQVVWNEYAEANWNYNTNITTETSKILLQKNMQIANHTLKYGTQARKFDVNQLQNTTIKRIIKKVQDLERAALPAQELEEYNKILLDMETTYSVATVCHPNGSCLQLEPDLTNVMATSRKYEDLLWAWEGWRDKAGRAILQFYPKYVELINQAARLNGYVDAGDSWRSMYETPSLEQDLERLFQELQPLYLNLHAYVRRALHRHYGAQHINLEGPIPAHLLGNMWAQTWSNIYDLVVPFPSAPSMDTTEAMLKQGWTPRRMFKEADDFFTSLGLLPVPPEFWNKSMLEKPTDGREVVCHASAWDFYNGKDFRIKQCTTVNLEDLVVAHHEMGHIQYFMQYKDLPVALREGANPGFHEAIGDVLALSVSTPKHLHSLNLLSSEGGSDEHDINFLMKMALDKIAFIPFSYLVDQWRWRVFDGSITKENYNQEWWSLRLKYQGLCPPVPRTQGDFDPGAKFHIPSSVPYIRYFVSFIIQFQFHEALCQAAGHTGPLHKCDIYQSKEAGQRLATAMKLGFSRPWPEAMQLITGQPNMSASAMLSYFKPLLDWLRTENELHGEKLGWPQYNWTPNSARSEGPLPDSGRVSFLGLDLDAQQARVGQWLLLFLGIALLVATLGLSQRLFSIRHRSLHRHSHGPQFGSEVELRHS
Procedure: (§1) In vitro testing is most appropriate for the free carboxylic acids of the invention. The test compound is dissolved in dimethyl sulfoxide, ethanol, or 0.25M sodium bicarbonate solution, and the solution is diluted with buffer to the desired concentration.
The buffer for the ACE assay is 300 mM NaCl, 100 mM KH2PO4 (pH 8.3). The reaction is initiated by the addition of 100 μL of hippuryl-histidyl-leucine (2 mg/mL) to tubes containing enzyme and drug in a volume of 150 μL and tubes are incubated for 30 minutes at 37° C. The reaction is terminated by the addition of 0.75 mL 0.6N NaOH. 100 μL of freshly prepared o-phthalaldehyde solution (2 mg/mL in methanol) is added to the tubes, the contents are mixed and allowed to stand at room temperature. After 10 minutes, 100 μL of 6N HCl is added. The tubes are centrifuged and the supernatant optical density is read at 360 nm. The results are plotted against drug concentration to determine the IC50, i.e., the drug concentration which gives half the activity of the control sample containing no drug.

NEP (EC 3.4.24.11) = target: T1, NEP (EC 3.4.24.11) (Rattus norvegicus, UniProt P07861); assay: in vitro inhibition of NEP (hydrolysis of glutaryl-Ala-Ala-Phe-2-naphthylamide, GAAP assay); assay type: biochemical; conditions: rat kidney cortex membranes
T1 construct: rat kidney cortex membranes prepared by method of Maeda et al. (1983); from tissue; host or cells: rat kidney cortex membranes
T1 sequence (P07861 1-750): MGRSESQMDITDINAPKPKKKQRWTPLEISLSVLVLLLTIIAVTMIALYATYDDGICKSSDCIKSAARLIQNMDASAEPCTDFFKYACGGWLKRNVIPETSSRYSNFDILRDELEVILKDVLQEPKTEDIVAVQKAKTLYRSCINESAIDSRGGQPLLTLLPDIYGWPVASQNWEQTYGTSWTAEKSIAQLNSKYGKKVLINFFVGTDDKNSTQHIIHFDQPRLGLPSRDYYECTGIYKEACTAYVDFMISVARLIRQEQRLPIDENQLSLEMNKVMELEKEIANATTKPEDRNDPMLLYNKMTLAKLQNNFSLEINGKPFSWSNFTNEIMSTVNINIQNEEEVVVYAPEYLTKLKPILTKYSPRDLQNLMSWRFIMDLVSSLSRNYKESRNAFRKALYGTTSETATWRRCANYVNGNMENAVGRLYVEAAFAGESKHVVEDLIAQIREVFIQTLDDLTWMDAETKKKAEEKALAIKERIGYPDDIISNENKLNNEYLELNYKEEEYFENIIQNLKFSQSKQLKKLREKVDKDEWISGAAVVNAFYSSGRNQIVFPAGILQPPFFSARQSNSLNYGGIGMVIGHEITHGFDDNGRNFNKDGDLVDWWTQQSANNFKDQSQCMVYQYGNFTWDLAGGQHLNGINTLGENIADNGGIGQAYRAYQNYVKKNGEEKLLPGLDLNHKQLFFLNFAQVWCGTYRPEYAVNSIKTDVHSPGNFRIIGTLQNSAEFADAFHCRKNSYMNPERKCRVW
Procedure: as §1
The in vitro inhibition of NEP (EC 3.4.24.11) can be determined as follows:
NEP 3.4.24.11 activity is determined by the hydrolysis of the substrate glutaryl-Ala-Ala-Phe-2-naphthylamide […] using a modified procedure of Orlowski and Wilk (1981). The incubation mixture (total volume 125 μL) contains 4.2 μL of protein (rat kidney cortex membranes prepared by method of Maeda et al. (1983), 50 mM tris buffer, pH 7.4 at 25°0 C., 500 μM substrate (final concentration), and leucine aminopeptidase M (2.5 μg). The mixture is incubated for 10 minutes at 25° C., and 100 μL of fast garnet (250 μg fast garnet/mL of 10% Tween 20 in 1M sodium acetate pH 4.2) is added. Enzyme activity is measured spectrophotometrically at 540 nm. One unit of NEP 24.11 activity is defined as 1 nmol of 2-naphthylamine released per minute at 25° C. at pH 7.4. IC50 values are determined, i.e., the concentration of test compound required for 50% inhibition of the release of 2-naphthylamine.

[3] = target: rabbit antibodies that recognize specifically the carboxyl terminal tryptophan of ET-1; assay: RIA: displacement of [125I]ET-1 binding to anti-ET-1 antibodies; conditions: mean±SEM, n=3–5
Procedure: Diluted samples ([…]) obtained from the above enzyme assay are incubated at 4° C. overnight with 25 μL each of [^125I]ET-1 (10,000 cpm/tube) and 1:20,000-fold diluted rabbit antibodies that recognize specifically the carboxyl terminal tryptophan of ET-1. Goat anti-rabbit antibodies coupled to magnetic beads (70 μg) are then added to each tube, and the reaction mixture is further incubated for 30 minutes at room temperature. The beads are pelleted using a magnetic rack. The supernatant is decanted, and the radioactivity in the pellet is counted in a gamma counter. Total and non-specific binding are measured in the absence of non-radioactive ET-1 and anti-ET antibodies, respectively.

## CCOC(=O)[C@H](Cc1ccc(OC)cc1)NC(=O)C(C)(C)NC(=O)[C@@H](SC(C)=O)C1CCOCC1 [Example 1f, N-[2-[(S)-2-acetylthio-2-(4-tetrahydropyranyl)-acetylamino]-2-methylpropionyl]-(L)-4-methoxyphenylalanine ethyl ester]
[1]
  inhibition of the angiotensin I induced pressor response: 98%
[2]
  reduction of mean arterial pressure: about 16 mm Hg

## COc1ccc(C[C@H](NC(=O)C(C)(C)NC(=O)[C@@H](S)C2CCOCC2)C(=O)O)cc1 [Example 2g, N-[2-[(S)-2-mercapto-2-(4-tetrahydropyranyl)-acetylamino]-2-methylpropionyl]-(L)-4-methoxyphenylalanine]
ACE
  IC50: ~5.9 nM
NEP (EC 3.4.24.11)
  IC50: ~4.8 nM

## ET-1: non-radioactive ET-1, the peptide formed from big ET-1 by ECE and measured by RIA
[3]
  IC50 for displacement of [125I]ET-1 binding to the antibodies: 21 ± 2 fmol

## big ET-1: ECE substrate from which ET-1 is formed; added in the ECE-1 assay (CSCSSLMDKECVYFCHLDIIWVNTPEHVVPYGLGSPRS; disulfide 1-15, 3-11; ends not checked; UniProt P05305 53-90, looked up)
[3]
  IC50 for displacement of [125I]ET-1 binding to the antibodies: 260,000±66,000 fmol
